From patent publication US9363996B2, “Compositions and method for blocking ethylene response in field crops using 3-(cy-clopropyl-l-enyl)-propanoic salt” (Yissum Research Development Company of the Hebrew …, priority 2009, dated 2016)

Legend:
[1] = test system: wheat plants; assay: Wheat grain yield, 450 ml pots in peat-based medium; type: in vivo, wheat (Triticum turgidum var. 'Gdera'); conditions: one spray WS-CPD 120 μl L^−1 (so in the source) at milky stage II
Procedure: In another experiment the wheat plants were grown in 450 ml pots in a peat-based medium. The plants were sprayed once with WS-CPD (120 μl L^−1) at milky stage II, 7 months after germination. The results confirmed previous results, showing a −15% increase in grain yield over the weight of the grains of untreated control plants (FIG. 54). This is also evident when calculating the distribution of grain weight (as percentage of the total number of grains) and comparing them with grain weight distribution from control plants.

[2] = test system: wheat plants; assay: Wheat grain yield at harvest, greenhouse, sandy soil, natural conditions; type: in vivo, wheat (Triticum turgidum var. 'Gdera')
[3] = test system: Winter wheat; assay: Field experiment in wheat: seed yield and seed weight; type: in vivo, Winter wheat (Ttriticum aestivum, var. Galil); conditions: for yield increase over the control, hand-separated: g/100 spikes; for seed yield increase compared to the untreated control, mechanically thresh separated: g/plot
Text: Plant material and experimental design—Winter wheat (Ttriticum aestivum, var. Galil) was sown in December 2008 in a medium-heavy soil in the farm of the Volcani Center, Agricultural Research Organization, Bet-Dagan, Israel. Winter rainfall between October and March was 515 mm. The crop was raised without irrigation. The plants were sprayed twice with insecticide in November with ‘Tunex’ (one L/acre) and in December with ‘Oror Turbo’ (200 g/acre). The experiment started in mid-March, 2009. Six blocks were randomly selected, and each block was further randomly divided into four treatment plots of two square meters each (FIG. 67A—right and left). Two-meter-wide strips of untreated plants served as border lines between the blocks (FIG. 67A—center). The following treatments were applied: 1. control; 2. spraying WS-CPD at the ‘Milky’ stage I (30.3.09); 3. spraying WS-CPD at the ‘Milky’ stage II (17.4.09); 4. two successive WS-CPD sprays as above (30.3.09 and 17.4.09).
Treatments—The treatment solution of WS-CPD contained 120 μg mL^−1 of WS-CPD in 10 mM K-phosphate buffer (pH 7.6) and 0.1% of ‘Kinetic’ surfactant. Spraying (about 0.8 L/two square meters) was applied with a portable sprayer (ACL 7-L, Great Brittan). The controls were sprayed with the treatment solution without WS-CPD. The spraying was aimed to cover the upper part of the plants, from the second leaf below the ‘Flag leaf’ and up, covering the whole spike.
Determination of seed development—In order to follow the dynamics of seed development from ‘Milky’ stage I to seed maturity, groups of 200 spikes were sampled from the border strips. Samples were taken on 30.3.09 (‘Milky’ stage I), 17.4.09 (‘Milky’ stage II), and 19.5.09 (seed maturity). The spikes were brought to the laboratory and dried in an oven (60° C.) until complete dryness. After drying, the seeds were separated from each spike, counted, and their weight was recorded to determine the average seed weight for each spike. The number of spikes with the same average seed weight of each treatment was expressed as percent of total spike number.
Harvesting—At the termination of the experiment (19.5.09), when the seeds reached full maturity, the spikes from all six blocks were harvested, counted, and placed on tables in the greenhouse for 12 days to reach complete dryness (FIG. 67B).
Hand seed separation—One hundred dried spikes were randomly sampled of each plot (n=6) after harvesting. The seeds of each spike were separated (FIGS. 67C and D) and counted and their weight was determined. The seed weight of each spike was divided by the number of seeds per spike to determine the average seed weight of each spike. The number of spikes of each treatment with the same average seed weight was expressed as percent of total spike number.
Mechanical thresh seed separation—The remaining dry spikes of each experimental plot were counted and mechanically thresh separated (Kurt Pelz Co., Germany) from their glumes and chafes, and their dry weight was recorded (g/plot). For comparison of the yield weight of the controls between mechanical thresh and hand separation, 200 seeds from each method were randomly sampled.
Effect of WS-CPD on Yield—This effect of WS-CPD was studied by two ways: a) calculating the yield of each experimental plot (g/plot) and; b) calculating the yield dry weight of 100 spikes randomly selected in each experimental plot (g/100 spikes).

[4] = WS-CPD 120 μg mL^−1 spray at 'Milky' stage I
[5] = WS-CPD 120 μg mL^−1 spray at 'Milky' stage II

## O=C([O-])CCC1=CC1.[Na+] [WS-CPD, 3-cyclopropyl-1-enyl-propanoic sodium salt]
[1]
  increase in grain yield over untreated control plants: −15%
[2]; WS-CPD 120 μg mL^−1, two to four sprays at 8 to 10 days intervals
  effect of repeating sprays after stage II on yield: no advantage
[2]; WS-CPD 120 μg mL^−1, untreated plants more than 30% below this weight
  grains weighting less than 35 mg/grain in the spikes of the treated plants: almost no grains
[2]; one spray WS-CPD 120 μg mL^−1 at milky stage I, dry grain at harvest
  total yield increase: ca. 18%
[3]; [4]
  yield increase over the control, hand-separated: about 15±2.6%
  seed yield increase compared to the untreated control, mechanically thresh separated: about 5%
[3]; [5]
  yield increase over the control, hand-separated: about 8%
  seed yield increase compared to the untreated control, mechanically thresh separated: ~8%
[3]; one spray at 'Milky' stage I, hand-separated, mg/seed
  increase of seed weight: about 15%
[3]; sprayed at 'Milky' stage I, II or both
  distribution of seed weight at maturity versus control spikes: always significantly heavier
[3]; spraying twice at 'Milky' stages I+II versus one spray at stage I
  yield, hand-separated: no advantage
[3]; spraying twice at 'Milky' stages I+II versus spraying once
  seed yield, mechanically thresh separated: no advantage
